Where “and” joins values, the source holds several entries; their conditions need not be identical. Equal entries are not always repeated.
Columns and labels:
[1] = test system: total antioxidant capacity (TAC); assay: Serum total antioxidant capacity (TAC), Example 2 part one; type: in vivo, dog; conditions: for TAC: serum
Description: Twenty-four hours after test dogs ran the last 15 mile endurance run, serum samples were taken to evaluate biomarkers for muscle damage and antioxidant status. Blood samples were taken 1) just prior to the beginning of the study; 2) 1 day prior to running the final 15 mile run on the 14th week; 3) 1 hour immediately following the 15 mile run; and 4) 24 hours following the final 15 mile run. After a blood sample was drawn, it was allowed to clot for 30 minutes at 25° C. before being centrifuged for 15 minutes at 2000 g at 4° C. Serum was aliquoted into 0.65 mL microcentrifuge tubes and stored at −80° C. until being assayed at the end of the study for creatine kinase, canine myoglobin, thiobarbituric acid reactive substances (TBARS), and total antioxidant capacity (TAC) using the commercially available kits described in Example 1.

Labrador Retrievers = assay: Time of final 15 mile endurance run, Example 1 (90 day study); type: in vivo, dog; conditions: Ex.1, 250 mg/d; for Final run time: 15 mile run at end of 90 day study, mean ± SEM
Description: Forty Labrador Retrievers were divided into two equal groups of twenty (11 males, 9 females) based on gender, body weight (“BW”), genetics, and lean mass and fed a low L-carnitine basal diet for a 90 day feeding period. The experimental dogs were fed the low L-carnitine basal for 10 days prior to the start of the study. Twenty of the Labs received 250 mg/day of L-carnitine (batch D22312) and 3.75 g of sugar and twenty of the Labs received 4 g/d of sugar. The dogs were scanned with a GE Prodigy DEXA system immediately prior to beginning of the study and the determined lean mass was utilized as a key component for helping assort the dogs equally between the control and L-carnitine group. A serum sample was obtained from each dog to determine a baseline value for blood biomarkers that were used to evaluate muscle damage and antioxidant status. The L-carnitine and control performance dogs were put through a weekly running program consisting of running sprint type shorter runs of higher intensity twice weekly (1200 yds/session increasing to 2400 yds/session over 10 wk period) and running endurance longer runs one time per wk (increasing from 5 miles/session to 10 miles per session over a 10 wk period). Each performance dog also wore the Actical activity monitor during the last endurance run. The dogs were put through a 15 mile run that included mud, water, tall grass, and swimming. The dogs were timed when they completed the course. The dogs were encouraged by kennel staff that rode along in a 4 wheel all terrain type vehicle during all of the endurance runs. […] Immediately following the 15 mile endurance run, each dog was placed in a kennel and evaluated for recovery time for body temperature (every 15 minutes for 2 hr) and heart rate (every 2 minutes for 14 minutes). Twenty four hours after test dogs ran the last 15 endurance run, post-run serum samples were taken to evaluate biomarkers for muscle damage and antioxidant status. Each test dog was also scanned with the GE Prodigy DEXA to determine body composition change that occurred during the course of the 13 wk study. Experimental Design: Forty Labrador Retrievers (labs) ranging in age from 1 to 3.5 years were incorporated into a two dietary treatment study. The two dietary treatments were based on feeding the test dogs the same low L-carnitine diet but adding 250 mg per day of L-carnitine to the L-carnitine group. Each of the L-carnitine dogs received the daily 250 mg of L-carnitine mixed with an additional 3.75 g sugar. The control dogs received 4 g of sugar each day. Twenty labs of equal gender, age, excitement level, frame size, body weight and genetic background were utilized for each of the two treatments. The labs utilized for the nutrition study were from a minimum of 6 different bitches. The lean body mass of the 40 test dogs was determined by scanning with the DEXA and the final key component utilized to assure equal groups. Prior to the start of the study, the labs were acclimated to the experimental diets for a minimum of 10 days. The labs were weighed at the beginning of the 90 day study and weighed every two weeks throughout the study. Feed consumption was determined daily by weighing feed provided and feed refusals. The quantity of food provided each dog on a daily basis was adjusted based on maintaining a minimum initial starting body weight throughout the study. […]

C[N+](C)(C)C[C@H](O)CC(=O)[O-] [L-carnitine]
TAC levels, serum ([1]; Ex.2 part one, 250 mg/d, post-run 24-hr): 0.16 mM Trolox equiv | TAC ([1]; FEMALES, Baseline): 0.15 ± 0.01 mM Trolox Equiv | TAC ([1]; FEMALES, Post-Run 1 Hr): 0.15 ± 0.01 mM Trolox Equiv | TAC ([1]; FEMALES, Post-Run 24 Hr): 0.16 ± 0.01 mM Trolox Equiv | TAC ([1]; FEMALES, Pre-Run): 0.13 ± 0.01 mM Trolox Equiv | TAC ([1]; MALES, Baseline): 0.18 ± 0.01 mM Trolox Equiv | TAC ([1]; MALES, Post-Run 1 Hr): 0.16 ± 0.01 mM Trolox Equiv | TAC ([1]; MALES, Post-Run 24 Hr): 0.16 ± 0.01 mM Trolox Equiv | TAC ([1]; MALES, Pre-Run): 0.15 ± 0.01 mM Trolox Equiv | TAC ([1]; Whole Groups, Baseline): 0.17 ± 0.01 mM Trolox Equiv | TAC ([1]; Whole Groups, Post-Run 1 Hr, Post-Run 1 Hr): 0.15 ± 0.01 mM Trolox Equiv | TAC ([1]; Whole Groups, Post-Run 24 Hr, Post-Run 24 Hr): 0.16 ± 0.01 mM Trolox Equiv | TAC ([1]; Whole Groups, Pre-Run): 0.14 ± 0.01 mM Trolox Equiv | Final run time (Labrador Retrievers; both sexes): 95.84 min and 95.84 ± 1.417^A n = 19 min | Final run time (Labrador Retrievers; females): 98.50 ± 3.179 n = 8 min | Final run time (Labrador Retrievers; males): 93.91 ± 0.4564^A n = 11 min | 15-mile timed run, minutes faster than control (Labrador Retrievers; both sexes vs control dogs): 6.56 min | 15-mile timed run, minutes faster than control (Labrador Retrievers; males vs control males): 8.69 min
